Results reported in patent US11912682B2, “Isoindolinone compounds” (Monte Rosa Therapeutics, Inc., priority 2021, dated 2024).

Tests used:
GSPT1 [1] = molecular target: T1, GSPT1 (Homo sapiens (Human), UniProt P15170+Q96SW2); assay: GSPT1 levels by western blotting and densitometry in NCI-H1155 and ABC-1 cell lines; format: cell-based; conditions: for DC50: six hours
Experimental: The anti-proliferative activity of compound 10 was tested on representative N-Myc high and N-Myc low cell lines (NCI-H1155, ABC-1 and EBC-1, NCI-H2023, respectively) following treatment with compound for 72 hours. Cells were sub-cultures as recommended by the providers (ATCC, DSMZ) and incubated at 37° C., 5% CO2. All cells were authenticated and confirmed by Short Tandem Repeat (STR) profiling. Briefly, cells were seeded to the appropriate density to allow logarithmic growth over the assay period in 96-well opaque-walled clear bottom plates (from Corning, Cat. No. 3903, Lot. No. 16419061; 100 μL total volume) and incubated overnight. Compound 10 and DMSO control were subsequently dispensed to the plates using HPD300 and a 9 data-point titration curve with concentrations ranging from 30 μM to 0.1 nM. Dilutions were prepared fresh prior to the assay using a 10 mM DMSO stock. Final DMSO concentration was 0.5%. The plates were incubated for 3 days at 5% CO2, 37° C. Cell viability was assessed using the CellTiter-Glo assay kit as recommended by the Manufacturer (Promega, Cat. No. G7558, Lot. No. 0000385738) and measurements performed on the EnSpire multimode plate reader (Perkin Elmer). EC50 values were determined using Prism8 (GraphPad) and the asymmetric (five-parameter) equation and least squares fit. GSPT1 levels were assessed in the NCI-H1155 and ABC-1 cell lines by densitometry analysis following treatment with compound 10 for 6 hours and western blotting analysis. […] Membranes were then transferred between two clean sheets of plastic and chemiluminescence (GSPT1), Dylight680 fluorescence (GAPDH) as well as colorimetric (molecular weight standard) signals were detected using a Chemidoc MP imaging system (BioRad 17001402). For chemiluminescence and colorimetric signals “optimal automatic exposure” settings (3×3 binning) were employed while fluorescence was detected using 1-4 seconds exposure time to achieve best GAPDH signals and avoid overexposure. […]
Target sequence in this assay (P15170 whole entry): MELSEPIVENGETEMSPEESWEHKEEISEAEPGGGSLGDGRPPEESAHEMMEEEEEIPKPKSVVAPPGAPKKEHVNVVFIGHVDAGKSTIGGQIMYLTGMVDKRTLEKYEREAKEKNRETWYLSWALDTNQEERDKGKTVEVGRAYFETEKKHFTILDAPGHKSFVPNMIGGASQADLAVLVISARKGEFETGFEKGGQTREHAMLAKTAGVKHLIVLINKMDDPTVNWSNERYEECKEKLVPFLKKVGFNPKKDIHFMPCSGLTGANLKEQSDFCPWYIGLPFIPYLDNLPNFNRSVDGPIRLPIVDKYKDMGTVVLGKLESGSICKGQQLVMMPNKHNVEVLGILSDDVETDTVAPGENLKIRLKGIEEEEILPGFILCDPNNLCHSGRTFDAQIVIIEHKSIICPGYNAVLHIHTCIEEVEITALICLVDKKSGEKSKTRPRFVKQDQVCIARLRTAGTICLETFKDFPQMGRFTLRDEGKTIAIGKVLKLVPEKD
Target sequence in this assay (Q96SW2 whole entry): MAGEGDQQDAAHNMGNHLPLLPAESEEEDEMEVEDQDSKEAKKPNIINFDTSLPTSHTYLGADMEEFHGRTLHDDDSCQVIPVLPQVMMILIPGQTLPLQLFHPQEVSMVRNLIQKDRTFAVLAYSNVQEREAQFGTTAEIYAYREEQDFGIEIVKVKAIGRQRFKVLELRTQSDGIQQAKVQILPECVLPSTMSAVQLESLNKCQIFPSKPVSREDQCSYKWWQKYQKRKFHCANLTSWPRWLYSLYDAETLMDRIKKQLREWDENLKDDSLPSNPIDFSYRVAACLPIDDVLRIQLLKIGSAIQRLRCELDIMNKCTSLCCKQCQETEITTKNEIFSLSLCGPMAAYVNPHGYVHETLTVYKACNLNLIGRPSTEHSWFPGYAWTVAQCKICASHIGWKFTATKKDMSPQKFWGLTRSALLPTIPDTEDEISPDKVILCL
Target sequence in this assay (Q16531 2-1140 partner): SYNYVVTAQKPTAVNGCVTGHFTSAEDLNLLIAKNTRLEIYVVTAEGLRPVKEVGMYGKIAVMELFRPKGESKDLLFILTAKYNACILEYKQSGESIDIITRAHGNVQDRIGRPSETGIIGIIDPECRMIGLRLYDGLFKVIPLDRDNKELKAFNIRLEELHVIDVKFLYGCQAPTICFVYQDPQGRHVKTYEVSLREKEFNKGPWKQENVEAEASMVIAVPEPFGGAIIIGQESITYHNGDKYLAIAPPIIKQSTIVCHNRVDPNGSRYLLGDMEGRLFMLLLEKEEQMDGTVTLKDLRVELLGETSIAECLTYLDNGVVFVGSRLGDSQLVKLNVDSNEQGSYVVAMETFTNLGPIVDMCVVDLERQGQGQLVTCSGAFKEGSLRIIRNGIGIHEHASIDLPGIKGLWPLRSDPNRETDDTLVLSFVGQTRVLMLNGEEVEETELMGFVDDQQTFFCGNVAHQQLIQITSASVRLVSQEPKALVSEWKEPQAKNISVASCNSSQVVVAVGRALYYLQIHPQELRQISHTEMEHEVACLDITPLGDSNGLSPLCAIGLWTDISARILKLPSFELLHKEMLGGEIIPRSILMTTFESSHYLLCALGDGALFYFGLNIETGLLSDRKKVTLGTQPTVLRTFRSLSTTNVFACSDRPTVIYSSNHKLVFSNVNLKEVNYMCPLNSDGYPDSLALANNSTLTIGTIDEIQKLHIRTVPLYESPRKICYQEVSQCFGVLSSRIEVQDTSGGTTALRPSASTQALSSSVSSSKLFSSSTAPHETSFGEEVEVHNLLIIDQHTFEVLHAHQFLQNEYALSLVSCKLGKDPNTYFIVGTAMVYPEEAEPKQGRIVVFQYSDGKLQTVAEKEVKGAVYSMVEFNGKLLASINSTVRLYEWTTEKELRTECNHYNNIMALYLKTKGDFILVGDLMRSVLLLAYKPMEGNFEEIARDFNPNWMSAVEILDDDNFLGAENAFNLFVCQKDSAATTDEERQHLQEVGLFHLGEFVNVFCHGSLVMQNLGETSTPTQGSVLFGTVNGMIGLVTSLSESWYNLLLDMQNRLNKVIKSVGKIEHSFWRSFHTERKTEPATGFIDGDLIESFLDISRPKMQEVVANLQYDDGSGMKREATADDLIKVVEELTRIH

GSPT1 [2] = molecular target: T1, GSPT1; assay: GSPT1 degradation in cells treated with compound (FIG. 1A); format: cell-based; conditions: cells treated with 0.3 µM
Target sequence in this assay (P15170 whole entry, looked up): as the sequence (P15170 whole entry) above
Target sequence in this assay (Q96SW2 whole entry, looked up): as the sequence (Q96SW2 whole entry) above
Target sequence in this assay (Q16531 whole entry partner, looked up): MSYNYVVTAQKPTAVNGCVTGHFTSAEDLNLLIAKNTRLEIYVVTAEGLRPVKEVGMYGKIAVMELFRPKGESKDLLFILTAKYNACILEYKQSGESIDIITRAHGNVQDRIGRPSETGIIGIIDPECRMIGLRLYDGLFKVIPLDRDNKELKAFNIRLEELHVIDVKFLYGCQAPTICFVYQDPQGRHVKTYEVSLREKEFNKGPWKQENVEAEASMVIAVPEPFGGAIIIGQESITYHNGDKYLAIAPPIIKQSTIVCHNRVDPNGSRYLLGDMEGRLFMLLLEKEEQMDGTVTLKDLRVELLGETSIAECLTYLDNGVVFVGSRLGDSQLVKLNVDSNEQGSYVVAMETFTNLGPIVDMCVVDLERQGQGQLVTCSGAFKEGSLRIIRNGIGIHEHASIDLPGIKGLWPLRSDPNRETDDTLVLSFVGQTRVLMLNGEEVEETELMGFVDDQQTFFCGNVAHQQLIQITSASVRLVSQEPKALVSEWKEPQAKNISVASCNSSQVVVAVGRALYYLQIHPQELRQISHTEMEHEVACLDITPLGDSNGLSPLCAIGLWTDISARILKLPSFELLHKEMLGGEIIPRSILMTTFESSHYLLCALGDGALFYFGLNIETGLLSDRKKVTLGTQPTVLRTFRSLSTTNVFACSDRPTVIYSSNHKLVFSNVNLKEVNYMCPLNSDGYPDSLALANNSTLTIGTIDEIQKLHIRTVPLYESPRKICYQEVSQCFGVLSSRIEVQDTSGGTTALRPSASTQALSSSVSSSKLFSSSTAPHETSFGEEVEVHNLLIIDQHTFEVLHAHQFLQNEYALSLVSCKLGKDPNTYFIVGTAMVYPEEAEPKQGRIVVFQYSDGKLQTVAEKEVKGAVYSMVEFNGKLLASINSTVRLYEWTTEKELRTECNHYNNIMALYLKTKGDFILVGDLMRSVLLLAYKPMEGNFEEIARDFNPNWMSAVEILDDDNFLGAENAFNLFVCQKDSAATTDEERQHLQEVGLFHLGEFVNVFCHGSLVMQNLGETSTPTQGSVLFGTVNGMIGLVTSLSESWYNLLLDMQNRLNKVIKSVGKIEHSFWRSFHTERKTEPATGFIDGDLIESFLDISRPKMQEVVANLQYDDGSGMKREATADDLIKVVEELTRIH

GSPT1 [3] = molecular target: T2, GSPT1 (Homo sapiens (Human), UniProt P15170); assay: GSPT1 levels in NCI-H1155 tumors by western blotting; format: in vivo, female BALB/c nude mice; conditions: 6 hours after the third dose, all three dose levels
Experimental: GSPT1 levels in tumors were determined by western blotting 6 hours after the third dose. Western blotting was performed as described previously using GAPDH as loading control.

ABC-1 = assay: Viability of NSCLC cell line, high N-Myc (FIG. 2A); format: cell-based; conditions: ABC-1, high N-Myc; compared to low N-Myc lines EBC-1, NCI-H2023
NCI-H1155 = assay: Viability of NSCLC cell line, high N-Myc (FIG. 2A); format: cell-based, human; conditions: compared to low N-Myc lines EBC-1, NCI-H2023
SALL4 = SALL4 (Homo sapiens (Human), UniProt Q9UJQ4); assay: substrate degradation in cells (FIG. 1A), SALL4; format: cell-based; conditions: highest concentration tested of 30 μM
GSPT1 [4] = molecular target: T2, GSPT1; assay: GSPT1 degradation in tumors of treated mice (FIG. 3B); format: in vivo, mouse; conditions: all three dose levels (1, 3, 6 mg/kg), compared to vehicle control
IKZF1 = IKZF1 (Homo sapiens (Human), UniProt Q13422); assay: IKZF1 degradation in cells treated with compound (FIG. 1A); format: cell-based; conditions: concentrations up to 30 µM
GSPT1 [5] = molecular target: T1, GSPT1; assay: GSPT1 degradation in high N-Myc NSCLC cells (FIG. 2); format: cell-based; conditions: for DC50: six hours of treatment
Target sequence in this assay (P15170 whole entry, looked up): as the sequence (P15170 whole entry) above
Target sequence in this assay (Q96SW2 whole entry, looked up): as the sequence (Q96SW2 whole entry) above
Target sequence in this assay (Q16531 whole entry partner, looked up): as the sequence (Q16531 whole entry partner, looked up) above

[6] = system: NCI-H1155 cells (human non small cell lung cancer); assay: NCI-H1155 xenograft study; format: in vivo, female BALB/c nude mice
Experimental: For the NCI-H1155 xenograft study, cells (human non small cell lung cancer, ATCC CRL-5818) were maintained in vitro as suspension culture in ATCC-formulated DMEM:F12 Medium supplemented as recommended by the provider and kept at 37° C. in an atmosphere of 5% CO2 in air. Cells (0.5 millions) were resuspended in 0.2 mL of PBS with Matrigel (50:50) and inoculated into female BALB/c nude mice, 6-8 weeks old, and allowed to grow to 150 mm^3 in size. Mice were dosed orally with either vehicle or compound 10 at 1 or 3 mg per kilogram daily (filled squares and filled triangles, respectively) or 6 mg per kilogram for 5 continous days followed by 9 days treatment holidays (5 On-9 off) (filled inverted triangles). Compound formulations were prepared fresh daily in 5%vDMSO/95%(30% w/v HP-β-CD in water). Gemcitabine dosed at 40 mg per kilogram, IP, Q4D×5 was used as a positive control (filled rhombi). For this study, mice were dosed for 21 days with tumor volumes measured every 3 days.

[7] = system: human cell line NCI-H1155; assay: N-Myc-driven mouse xenograft model, NCI-H1155 (FIG. 3A); format: in vivo; conditions: for tumor size (tumor volume): study to day 21

T2 sequence (P15170 whole entry): as the sequence (P15170 whole entry) above
T2 sequence (Q96SW2 whole entry, further chain): as the sequence (Q96SW2 whole entry) above
T2 sequence (Q16531 2-1140 partner): as the sequence (Q16531 2-1140 partner) above
Chain of IKZF1 (Q13422 whole entry, looked up): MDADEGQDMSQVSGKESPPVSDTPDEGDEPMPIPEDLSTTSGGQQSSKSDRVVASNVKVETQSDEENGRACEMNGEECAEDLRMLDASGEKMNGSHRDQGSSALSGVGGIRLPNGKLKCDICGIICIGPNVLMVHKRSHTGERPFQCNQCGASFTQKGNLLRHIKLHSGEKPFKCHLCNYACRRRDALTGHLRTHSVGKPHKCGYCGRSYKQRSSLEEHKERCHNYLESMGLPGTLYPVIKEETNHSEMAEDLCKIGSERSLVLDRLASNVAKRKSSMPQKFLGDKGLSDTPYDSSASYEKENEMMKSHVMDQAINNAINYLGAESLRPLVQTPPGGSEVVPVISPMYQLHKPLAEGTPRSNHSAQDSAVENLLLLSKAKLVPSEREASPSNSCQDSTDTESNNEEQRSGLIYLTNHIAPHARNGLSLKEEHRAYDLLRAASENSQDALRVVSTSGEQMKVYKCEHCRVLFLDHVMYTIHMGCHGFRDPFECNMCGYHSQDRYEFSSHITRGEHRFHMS

- DC50 (GSPT1 [1]; ABC-1 cells): 22 nM
- DC50 (GSPT1 [1]; NCI-H1155 cells): 3 nM
- GSPT1 degradation (GSPT1 [1]; high N-Myc NCI-H1155 and ABC-1 cells, six hours of treatment): Complete degradation of GSPT1
- degradation of GSPT1 (GSPT1 [2]): complete degradation
- GSPT1 levels in tumors (FIG. 3B) (GSPT1 [3]): Complete degradation of GSPT1
- degradation of GSPT1 in tumors (GSPT1 [4]): complete degradation
- degradation of IKZF1 (IKZF1): no induction of degradation
- DC50 (GSPT1 [5]; ABC-1 cells): 22 nM
- relative levels of GSPT1 vs concentration (GSPT1 [5]; FIG. 2B): concentration dependent manner
- DC50 (GSPT1 [5]; NCI-H1155 cells): 3 nM
- extent of GSPT1 degradation (GSPT1 [5]; both cell lines, NCI-H1155 and ABC-1): complete degradation
SMILES: Cc1ccc(NC(=O)OCc2ccc3c(c2)C(=O)N(C2CCC(=O)NC2=O)C3)cc1Cl (stereo not drawn) [Compound 10]
- sensitivity to treatment (viability in %) (ABC-1): highly sensitive
- sensitivity to treatment (viability in %) (NCI-H1155): highly sensitive
- SALL4 degradation (FIG. 1A) (SALL4): none of the known the substrates IKZF1, IKZF3, SALL4, CK1alpha was degraded
- tumor growth (FIG. 3A) ([6]; 1 mg/kg once daily, oral): tumor growth was suppressed for two weeks
- tumor size (FIG. 3A) ([6]; 3 mg/kg once daily, oral): tumor size decreased, became undetectable by day eight and remained so until the end of the study at day 21
- tumor size (FIG. 3A) ([6]; 6 mg/kg five days on and nine days off, oral): tumor size decreased, became undetectable by day eight and remained so until the end of the study at day 21
- body weight ([6]; oral administration): no body weight loss observed
- tumor growth (FIG. 3A) ([6]; oral administration): tumor growth inhibition
- tumor growth (tumor volume) ([7]; 1 mg/kg PO once daily): tumor growth was suppressed for two weeks
- tumor size (tumor volume) ([7]; 3 mg/kg PO once daily): tumor size decreased, became undetectable by day eight and remained so until the end of the study at day 21
- tumor size (tumor volume) ([7]; 6 mg/kg PO five days on and nine days off): tumor size decreased, became undetectable by day eight and remained so until the end of the study at day 21
- body weight ([7]; oral administration): no body weight loss
- effect on tumor growth (tumor volume) ([7]; oral administration): tumor growth inhibition
